Tested on: db/db mice
Assay: Diabetic db/db Mouse In Vivo Assay
Settings: female db/db mice
Text: Db/db mice are known in the art to be susceptible to Type II diabetes (Sharma K, McCue P, Dunn S R. Am J Physiol Renal Physiol. 2003 June; 284(6):F1138-44). The Db/db mice are also known in the art to be a useful model for dylipidemia.
Female db/db mice (C57BL/6J-Lep^db/db, Jackson Laboratories, Bar Harbor, Me., USA) were received at 8 weeks of age and single-housed and fed with regular chow diet. Blood was collected by tail puncture and glucose was monitored with a glucometer (OneTouch Basic, Lifescan, Newtown, Pa.).
Mice at 10 weeks of age were randomized into treatment groups based on glucose values (first criterion, average of 250 mg/dl) and body weight (second criterion, average of 37 gram). The mice were orally gavaged once daily (0.2 ml at 1500-1700 hour) with vehicle control (0.5% methylcellulose, pH7.4) and vehicle containing test compound (300 mg/kg). On day 11, the mice were fasted for 4 hr during light cycle (food was removed 0600-1000 hour) and blood glucose levels were measured through tail puncture with a glucometer at 1000 hour. The mice were then anaesthetized with sodium pentobarbital (1 ml/kg, i.p, Sleepaway, Fort Dodge, Iowa) and blood was drawn via cardiac puncture and collected into heparinized tubes.
White adipose tissue (WAT) (retroperitoneal fat) and skeletal muscle (gastrocnemius and soleus muscle) were dissected and weighed. Plasma samples were obtained by centrifuge at 2,000 g for 15 minutes at 4° C. and subjected to measurement of insulin, HDL cholesterol and triglyceride.
Data shown below are expressed as the mean and standard error calculated using 9-10 mice per treatment group. The 2 tailed Student's t-Tests were used for statistic analysis. All animal studies complied with the guideline of the Institutional Animal Care and Use Committee.

[1] = 300 mg/kg oral gavage once daily, day 11, plasma, mean ± standard error
[2] = 300 mg/kg oral once daily, in words

**Q.** Which results are given for `NS(=O)(=O)NCc1csc2ccccc12` [Compound #1, N-(benzo[b]thien-3-ylmethyl)-sulfamide]?
**A.** Blood Glucose (300 mg/kg oral gavage once daily, day 11, 4 hr fasted, mean ± standard error, 9-10 mice): 350 ± 19 mg/dL; HDL Cholesterol [1]: 52.6 ± 1.8 mg/dL; Triglycerides [1]: 149.2 ± 15.8 mg/dL; Insulin levels (300 mg/kg oral gavage once daily, day 11, plasma, vehicle 11.9±2.2): 14.6±3.0; Skeletal Muscle Weight (300 mg/kg oral gavage once daily, day 11, gastrocnemius and soleus muscle, mean ± standard error): 0.155 ± 0.004 g; Retroperitoneal Fat Weight (300 mg/kg oral gavage once daily, day 11, mean ± standard error): 1.29 ± 0.09 g; blood glucose levels as compared to vehicle treated mice [2]: significantly lower; blood triglyceride levels as compared to vehicle treated mice [2]: decreased; plasma HDL cholesterol levels as compared to vehicle treated mice [2]: significantly increased; skeletal muscle mass versus vehicle [2]: increased skeletal muscle mass; fat to lean mass ratio (300 mg/kg oral once daily, versus vehicle, in words): significant decrease

— patent US20070191459A1, “Use of Benzo-Heteroaryl Sulfamide Derivatives for Lowering Lipids and Lowering Blood Glucose Levels” (priority 2006, published 2007)
